# What was measured:
# [1] = Porcine drug elution PK study of dual drug eluting coating; format: in vivo; settings: after 8 days of implantation, FIG. 11 stent (sirolimus + cilostazol in one EVA/BMA layer, 100 μg BMA overcoat)
# Description: Another critical parameter for the performance of the thrombus resistance of a device coated with cilostazol is the duration of the drug release from the coating. This is of particular significance in the two weeks after device implantation. In the porcine drug elution PK studies of the dual drug eluting coating, both cilostazol and sirolius were slowly released from the coating, resulting in a sustained drug release profile. The purpose of the porcine PK study is to assess the local pharmacokinetics of a drug eluting stent at a given implantation time. Normally three stents are implanted in three different coronary arteries in a pig for a given time point and then retrieved for total drug recovery analysis. The stents are retrieved at predetermined time points; namely, 1, 3 and 8 days. The stents are extracted and the total amount of drug remaining on the stents is determined by analysis utilizing HPLC (high performance liquid chromatography) for total drug amount. The difference between the original amount of drug on the stent and the amount of drug retrieved at a given time represents the amount of drug released in that period. The continuous release of drug into surrounding arterial tissue is what prevents the neointimal growth and restenosis in the coronary artery. A normal plot represents the percentage of total drug released (%, y-axis) vs. time of implantation (day, x-axis). […]
# [2] = In vitro release kinetics of sirolimus and cilostazol from coated stents; format: physicochemical
# [3] = Cumulative in vivo drug release from reservoir dual drug eluting stent; settings: 30 days; compared to cilostazol
# Description: Referring to FIG. 29, there is illustrated the cumulative in vivo drug release percentages for each drug over a thirty day period. Curve 2902 represents the profile for cilostazol while curve 2904 represents the profile for sirolimus. FIG. 30 is a graphical representation of the amount of each drug, in micrograms, released in vivo. Curve 3002 represents the profile for cilostazol while curve 3004 represents the profile for sirolimus. The curves in the figures illustrate that both the drugs elute independently of each other with minimal or substantially no interaction. […] Since the amount of drug (by weight) is different for the drugs in their respective reservoirs, the total amount of drug released at thirty (30) days was higher for sirolimus as compared to cilostazol.
Structure (SMILES),drug remained in the drug coating [1] [%],in vitro drug release rate ([2]; 200 μg BMA diffusion overcoat (FIG. 4) versus 100 μg (FIG. 6)),"in vitro release ([2]; FIG. 11 stent (sirolimus + cilostazol in one EVA/BMA layer, 100 μg BMA overcoat), FIG. 10) [%]",total amount of drug released (by weight) [3]
"O=C1CCc2cc(OCCCCc3nnnn3C3CCCCC3)ccc2N1 [cilostazol, 6[4-(1-cyclohexyl-1H-tetrazol-5-yl)-butoxy]-3,4-dihydro-2-(1H)-quinolinone]",~80,comparatively slower,~35,–
CO[C@H]1C[C@@H]2CC[C@@H](C)[C@@](O)(O2)C(=O)C(=O)N2CCCC[C@H]2C(=O)O[C@H]([C@H](C)C[C@@H]2CC[C@@H](O)[C@H](OC)C2)CC(=O)[C@H](C)/C=C(\C)[C@@H](O)[C@@H](OC)C(=O)[C@H](C)C[C@H](C)/C=C/C=C/C=C/1C [rapamycin],~80,–,–,higher
